The values that follow are results of earlier work, collected in PMC12308805, “Ultrahigh-Throughput Virtual Screening Strategies against PPI Targets: A Case Study of STAT Inhibitors” (Journal of Chemical Information and Modeling, 2025).

Square brackets hold non-standard residues; d marks the D form. Peptide text beside a SMILES is read from it. * marks the point of attachment. aIle = CC[C@@H](C)[C@H](N)C(=O)O; AMC = Cc1cc(=O)oc2cc(N*)ccc12; Boc = CC(C)(C)OC(=O)*

In this data set the test system is STAT3. The conditions noted are these: sheet 6QHD_actives_decoys, retrospective screening set for STAT3 SH2 domain (PDB 6QHD); decoys are presumed inactives, not tested; ref DUD-E; cited from earlier work.
On to `COc1ccc([N+](=O)[O-])cc1N(C[C@H](O)CN(Cc1ccccc1)Cc1ccccc1)S(=O)(=O)c1ccccc1` [Decoy741], for which the Type entry is “Inactive (Decoy)”.
Regarding `CC(=O)O[C@H]1[C@@H](O)[C@H](CO)O[C@H](O[C@@H](C/N=C/c2c(O)cc(O)c3ccccc23)[C@@H](CO)O[C@H](O)C/N=C/c2c(O)cc(O)c3ccccc23)[C@@H]1O` [Decoy742], the Type result is on record as “Inactive (Decoy)”.
Turning to `CC[C@@]1(c2ccccc2)NC(=O)N(CC(=O)Nc2ccc(S(=O)(=O)Nc3ncccn3)cc2)C1=O` [Decoy743], the Type entry is on record as “Inactive (Decoy)”.
Regarding `CCN(CC)S(=O)(=O)c1ccc(NC(=O)CCCCCCCC(=O)Nc2ccc(S(=O)(=O)N(CC)CC)cc2)cc1` [Decoy744], the Type result is “Inactive (Decoy)”.
As for `CCOC(=O)C1=C(C)NC(=O)N[C@H]1c1ccc(OCC(=O)N/N=C/c2cc(C)n(-c3ccc(Cl)c(Cl)c3)c2C)c(OC)c1` [Decoy745], the Type entry is recorded as “Inactive (Decoy)”.
Consider `Cc1cc(NS(=O)(=O)c2ccc(NC(=O)CCCC(=O)Nc3ccc(S(=O)(=O)Nc4cc(C)on4)cc3)cc2)no1` [Decoy746], for which the Type entry is on record as “Inactive (Decoy)”.
Take `CCOC(=O)c1[nH]c(C)c(C(=O)OCC(=O)NCC(=O)Nc2ccc(F)c(F)c2F)c1C` [Decoy747]: the Type result is on record as “Inactive (Decoy)”.
On to `CCCCCCCCCCCCCCCCN(C)S(=O)(=O)c1ccc2sc(NNS(=O)(=O)c3ccc(S(N)(=O)=O)cc3)[n+](C)c2c1` [Decoy748], for which the Type entry is reported as “Inactive (Decoy)”.
Take `CS(=O)(=O)SCCNC(=O)[C@H](N)CCCCNC(=O)CCCCCNC(=O)CCCC[C@@H]1SC[C@H]2NC(=O)N[C@H]12` [Decoy749]: the Type result is reported as “Inactive (Decoy)”.
On to `COc1cc(Cc2ccc(NC(=O)CSc3nc(N)cc(=O)[nH]3)c(OC)c2)ccc1NC(=O)CSc1nc(N)cc(=O)[nH]1` [Decoy750], for which the Type result is recorded as “Inactive (Decoy)”.
With `CCOC(=O)c1c(NC(=O)CSc2n[nH]c(N/N=C/c3c[nH]c4ccccc34)n2)sc2c1CCC2` [Decoy751], the Type result is “Inactive (Decoy)”.
In the case of `CC(=O)Nc1cccc(NC(=O)CSc2nnc(N/N=C/c3c(O)ccc4ccccc34)n2N)c1` [Decoy752], the Type result is “Inactive (Decoy)”.
With `CC[C@@H](C)[C@H](NC(=O)OC(C)(C)C)C(=O)N[C@@H](CCC(=O)O)C(=O)NCC(=O)N[C@@H](CCCNC(=N)N)C(=O)Nc1ccc2c(C)cc(=O)oc2c1` [Decoy753] (Boc-[aIle]EGR-{AMC}), the Type result is on record as “Inactive (Decoy)”.
On to `CCOC(=O)c1c(NC(=O)c2cc(OC)c(OC)c(OC)c2)sc(C(=O)Nc2ccc(OC)cc2OC)c1C` [Decoy754], for which the Type result is “Inactive (Decoy)”.
Consider `CC(C)CN(C(=O)CN(C)C(=O)Cc1ccccc1Cl)c1c(N)n(CC(C)C)c(=O)[nH]c1=O` [Decoy755], for which the Type result is “Inactive (Decoy)”.
With `CCOC(=O)c1[nH]c(C)c(C(=O)C2=C(O)C(=O)N(CCCn3ccnc3)[C@H]2c2cc(OC)c(OC)c(OC)c2)c1C` [Decoy756], the Type entry is reported as “Inactive (Decoy)”.
Take `CCCCN(C)S(=O)(=O)c1ccc(C(=O)Nc2ccc(S(=O)(=O)Nc3nc(C)cc(C)n3)cc2)cc1` [Decoy757]: the Type entry is “Inactive (Decoy)”.
Turning to `CC/C=C\C/C=C\C/C=C\CCCCCCCC(=O)OC[C@@H](O)CO[C@H]1O[C@@H](CO[C@H]2O[C@@H](CO)[C@H](O)[C@@H](O)[C@@H]2O)[C@@H](O)[C@@H](O)[C@@H]1O` [Decoy758], the Type result was “Inactive (Decoy)”.
`CCCOc1ccc([C@@H]2C(C(=O)c3c(C)nc4ccccn34)=C(O)C(=O)N2CCN(CC)CC)cc1OCC` [Decoy759]: the Type entry is recorded as “Inactive (Decoy)”.
Turning to `CCCOc1ccc([C@H]2C(C(=O)c3c(C)nc4ccccn34)=C(O)C(=O)N2CCN(CC)CC)cc1OCC` [Decoy760], the Type entry was “Inactive (Decoy)”.
Consider `CCOC(=O)c1c(C)[nH]c(C(=O)OCC(=O)NCC(=O)Nc2ccc(F)c(F)c2F)c1C` [Decoy761], for which the Type result is on record as “Inactive (Decoy)”.
`CCCCOC(=O)C1=C(C)Nc2nc(SCc3ccccc3Cl)nn2[C@@H]1c1ccccc1C(=O)O` [Decoy762]: the Type result was “Inactive (Decoy)”.
In the case of `Cc1nn(-c2cc(Cl)c(S(=O)(=O)O)cc2Cl)c(O)c1/N=N/c1cccc(S(=O)(=O)O)c1` [Decoy763], the Type result was “Inactive (Decoy)”.
With `CCOC(=O)[C@@H]1[C@@H](C(=O)OCC)[C@H]2/C(=N\NS(=O)(=O)c3ccc(C)cc3)[C@H]3[C@@H](C(=O)OCC)[C@@H](C(=O)OCC)[C@@H]3/C(=N\NS(=O)(=O)c3ccc(C)cc3)[C@@H]12` [Decoy764], the Type entry was “Inactive (Decoy)”.
With `COc1ccc([C@H](O[C@@H]2O[C@H](CO)[C@@H](O)[C@H](O)[C@H]2O)[C@@H](CO)Oc2ccc(/C=C/CO)cc2OC)cc1O` [Decoy765], the Type entry was “Inactive (Decoy)”.
Turning to `CC[C@@]1(c2ccccc2)NC(=O)N(CC(=O)NNC(=O)CCN2CCN(c3ccccc3)CC2)C1=O` [Decoy766], the Type entry is reported as “Inactive (Decoy)”.
Regarding `CC1=C/C(=C(\c2cc(C)c(O)c(CN(C)CC(=O)O)c2)c2ccccc2S(=O)(=O)O)C=C(CN(C)CC(=O)O)C1=O` [Decoy767], the Type entry is “Inactive (Decoy)”.
As to `COc1ccccc1NCc1nnc(SCC(=O)Nc2ccc3c(c2)C(O)=NC3=O)n1-c1ccccc1` [Decoy768], the Type entry was “Inactive (Decoy)”.
With `CCN(CC)c1ccc(NC(=S)NC(=O)c2ccco2)cc1S(=O)(=O)Nc1ccc(OC)cc1` [Decoy769], the Type entry was “Inactive (Decoy)”.
In the case of `CCc1ccc2[nH]c(=O)c(CN(CCc3ccc(OC)c(OC)c3)Cc3nnnn3Cc3ccccc3)cc2c1` [Decoy770], the Type entry was “Inactive (Decoy)”.
As to `O=C(CCCCC(=O)Nc1ccc(S(=O)(=O)N2CCCCC2)cc1)Nc1ccc(S(=O)(=O)N2CCCCC2)cc1` [Decoy771], the Type result is “Inactive (Decoy)”.
For `CC1=CC(=O)CC(C)(C)[C@H]1/C=C/[C@@H](C)O[C@@H]1O[C@H](CO)[C@@H](O)[C@H](O)[C@H]1O[C@@H]1OC[C@](O)(CO)[C@H]1O` [Decoy772], the Type entry is “Inactive (Decoy)”.
For the compound `COc1c([C@@H]2OC[C@@H](OC(C)=O)[C@@H](OC(C)=O)[C@H]2OC(C)=O)c(O)cc2oc(-c3ccc(O[C@H]4O[C@@H](CO)[C@@H](O)[C@@H](O)[C@H]4O)cc3)cc(=O)c12` [Decoy773], the Type entry is “Inactive (Decoy)”.
Regarding `COc1c([C@@H]2OC[C@H](OC(C)=O)[C@@H](OC(C)=O)[C@H]2OC(C)=O)c(O)cc2oc(-c3ccc(O[C@H]4O[C@@H](CO)[C@@H](O)[C@@H](O)[C@H]4O)cc3)cc(=O)c12` [Decoy774], the Type entry is on record as “Inactive (Decoy)”.
Take `CC[C@H]1OC(=O)[C@@H](C)[C@@H](O[C@@H]2C[C@@](C)(OC)[C@H](O)[C@H](C)O2)[C@@H](C)[C@@H](O[C@H]2O[C@@H](C)C[C@@H](N(C)C)[C@H]2O)[C@](C)(OC)C[C@@H](C)C(=O)[C@@H](C)[C@@H](O)[C@]1(C)O` [Decoy775]: the Type result is listed as “Inactive (Decoy)”.
For the compound `COc1ccc2cc([C@H](c3nnnn3C(C)(C)C)N(CCc3ccc(OC)c(OC)c3)Cc3ccccc3)c(=O)[nH]c2c1` [Decoy776], the Type entry is reported as “Inactive (Decoy)”.
Turning to `Cc1cc(NC(=O)CSc2nncn2C)ccc1-c1ccc(NC(=O)CSc2nncn2C)cc1C` [Decoy777], the Type result was “Inactive (Decoy)”.
In the case of `CCOc1ccc(-n2c(SCC(=O)N/N=C/c3ccc(OC)c(OC)c3OC)nnc2-c2ccccc2)cc1` [Decoy778], the Type result is “Inactive (Decoy)”.
